The assay deals with T1, Est804.
T1 construct: expressed in E. coli BL21(DE3); lysate supernatant called crude, His-tag purification described for SDS-PAGE
The assay is described as follows: release of p-nitrophenol at […] nm, Lineweaver-Burk plot. It counts as biochemical, soil metagenome. The conditions noted are these: free enzyme; 0.0-5.0 mM substrate; Britton-Robinson buffer pH 6.8, 40 °C (standard conditions); crude lysate supernatant mentioned, purity of the kinetic sample not clear.

SMILES strings stand for the structures.

With `CC(=O)Oc1ccc([N+](=O)[O-])cc1` [ρ-nitrophenyl acetate], the Km was 613 µM.

The values above are taken from publication PMC9301488, “Expression, Characterization, Fermentation, Immobilization, and Application of a Novel Esterase Est804 From Metagenomic Library in Pesticide Degradation” (Frontiers in Microbiology, 2022).
